Data set [1] relates to gastric cancer cells SNU-16 with high expression of FGFR2. Briefly: Cell proliferation inhibition, CellTiter-Glo, SNU-16. It is filed as cell-based. As to conditions: Homo sapiens, 72 h, SNU-16, cultured for 3 days. The text has this:
The compounds of the present disclosure can target and inhibit FGFR and VEGFR pathways, and inhibit tumor cell growth by inhibiting VEGF/VEGFR and FGF/FGFR signaling pathways. In this experiment, human non-small cell lung cancer cells NCI-H1581 with high expression of FGFR1, gastric cancer cells SNU-16 with high expression of FGFR2, and human bladder cancer cells RT112/84 with high expression of FGFR3 were selected. In this experiment, the inhibitory effect of compounds on cell proliferation was investigated by detecting the effect of the compounds of the present disclosure on the cell viability in vitro in the tumor cell lines NCI-H1581, SNU-16 and RT-112/84.
Regular passage, and cells in logarithmic growth phase were taken for plating.
• (1) Cells were stained with trypan blue and viable cells were counted. • (2) The cell concentration was adjusted to an appropriate concentration.
• (3) 90 μL of cell suspension per well was added to a culture plate, and cell-free culture solution was added to the blank control well. • (4) The plate was cultured overnight in a 37° C., 5% CO2 incubator with 100% relative humidity.
• (1) Preparation of 10× compound working solution: 78 μL of cell culture medium was added to a V-bottom 96-well plate, and 2 μL of compound was pipetted from a 400× compound storage plate and added to the cell culture medium of the 96-well plate. […]

A short description of data set [2]: Hygroscopicity study by dynamic vapor sorption (DVS). The class given is physicochemical. As to conditions: 25° C. and 80% RH. The protocol:
Instrument model: SMS Intrinsic Dynamic Vapor Sorption Analyzer
Test conditions: Taking a sample (10 to 30 mg) and placing in a DVS sample dish for testing.
Detailed DVS parameters are as follows: • Temperature: 25° C. • Equilibration: dm/dt=0.002%/min (minimum: 10 min, maximum: 180 min) RH range: 0% RH to 95% RH to 0% RH • RH gradient: 10% (90% RH to 0% RH to 90% RH) • 5% (95% RH to 90% RH and 90% RH to 95% RH)

The compound `CS(=O)(=O)O.Cn1cc(-c2ccn3c(-c4cc(NS(C)(=O)=O)nc(-c5ccc(F)cc5F)c4)cnc3c2)cn1` returned an IC50 in data set [1] of 44.5 nM. Moreover, in data set [2], the “hygroscopic weight gain ΔW” value amounted to 1.708%.

As usually defined, the IC50 is the concentration needed to halve the response being measured. The low end stands for greater potency in that assay, the high end for weaker potency in that assay.

The values above are taken from US20240409534A1, “CRYSTAL FORM OF METHYLPYRAZOLE-SUBSTITUTED PYRIDOIMIDAZOLE COMPOUND AND PREPARATION METHOD THEREFOR” (priority 2021, published 2024).
